Here are results for ten molecules from patent US4244965A, “Azetidinoyl ethers” (Beecham Group Limited, priority 1978, dated 1981).

Series [1] deals with Staph Russell. Briefly: standard microliter MIC test (Demonstrations 3-5). The series is classed as cell-based. The note with it: for MIC: alone.
Series [2] concerns Kleb E 70. Kind of series: standard microliter MIC test (Demonstrations 3-5). The series is classed as cell-based, Klebsiella.
The subject of series [3] is Proteus C 889. Kind of series: standard microliter MIC test (Demonstrations 3-5). The series is classed as cell-based. The note with it: for MIC (ampicillin + title compound): trailing end point; for MIC: alone.
The subject of series [4] is E. coli JT 39. Kind of series: standard microliter MIC test (Demonstrations 3-5). The series is classed as cell-based. The note with it: for MIC: alone.
The subject of series [5] is E. coli JT 410. Briefly: standard microliter MIC test (Demonstrations 3-5). The series is classed as cell-based.
Series [6] concerns Escherichia coli JT39. Briefly: Amoxycillin with or without synergist, E. coli JT39 intraperitoneal infection of mice, subcutaneous (Demonstration 1a). Format: in vivo, Escherichia coli (infected mice). The settings on record: JT39, sc, antibiotic alone, sub-cutaneous, 1 and 5 hours post infection, read-out: CD50 (the source's name). The procedure: a. Sub-cutanvenous administration: Groups of mice were infected inter peritoneally with Escherichia coli JT39. At 1 and 5 hours post infection the mice were treated with amoxycillin (Amox.) or with amoxycillin and synergist. The solutions were made up in phosphate buffer.

Series [7] deals with Escherichia coli JT39. Kind of series: Amoxycillin with or without synergist, E. coli JT39 intraperitoneal infection of mice, oral (Demonstration 1b). The series is classed as in vivo, Escherichia coli (infected mice). The note with it: antibiotic alone, oral, 1, 3 and 5 hours post-infection, read-out: CD50 (the source's name). The procedure: (§1) b. Oral administration: Groups of mice were infected inter peritoneally with Escherichia coli JT39. At 1, 3 and 5 hours post-infection the mice were treated with amoxycillin or with amoxycillin and synergist. The solutions were made up in phosphate buffer.

The test system of series [8] is Escherichia coli JT 39. Kind of series: intra peritoneal infection due to Escherichia coli JT 39 in mice, subcutaneous dosing (Demonstration 2b). The series is classed as in vivo, Escherichia coli (infected mice). The note with it: for ED50: Escherichia coli, JT39, sc, alone, × 2, sub-cutaneous, 1 and 5 hours post infection, read-out: C50. The procedure: b. […] Dosing was sub-cutaneous and 1 and 5 hours post infection.

The test system of series [9] is Staph. aureus Russell. Kind of series: standard MIC test (Demonstration 1c). The settings on record: Staphylococcus aureus. Format: cell-based.
The test system of series [10] is Escherichia coli JT39. Kind of series: standard MIC test (Demonstration 1c). Format: cell-based.
Series [11] relates to E. coli JT 39. Kind of series: conventional microliter method, MIC (Demonstration 2a). The series is classed as cell-based. The note with it: Escherichia coli, JT39. The procedure: (§2) a. The antibacterial and synergistic activity of the title compound (referred to as "Sunergist" in the Table) was determined by a conventional microliter method.
Series [12] concerns Proteus C 889. The series is described as above. The series is classed as cell-based. The procedure:
as §2

For series [13], the system named is Pseudomonas Dalgleish. Briefly: microbe, parasite or virus in culture. Format: cell-based. The procedure: as §2
Series [14] deals with Klebsiella E70. Kind of series: standard MIC test (Demonstration 1c). Format: cell-based. The note with it: alone.
A short description of series [15]: Signs of drug toxicity during the in-vivo tests (Demonstration 1). The note with it: mice. The procedure: (§3) a. Sub-cutanvenous administration: Groups of mice were infected inter peritoneally with Escherichia coli JT39. At 1 and 5 hours post infection the mice were treated with amoxycillin (Amox.) or with amoxycillin and synergist. The solutions were made up in phosphate buffer. The results were as follows:
as §1

In series [16] the test system is gram negative bacteria such as Escherichia and Klebsiella and gram positive bacteria such as Staphylococcus. Kind of series: Summary of the synergy tests with penicillins (Demonstration 1d). The settings on record: summary of preceding tests. The procedure:
as §3, §1

Series [17] has as its system E. coli JT 410. Kind of series: conventional microliter method, MIC (Demonstration 2a). The note with it: Escherichia coli, JT410; alone. The series is classed as cell-based. The procedure: as §2
The subject of series [18] is Kleb. E 70. The description is as above. Format: cell-based. The note with it: Klebsiella; alone. The procedure:
as §2

Series [19] deals with Staph. Russell. Described as above. The series is classed as cell-based. The note with it: alone. The procedure:
as §2

A short description of series [20]: Average blood levels after oral administration to dogs (Demonstration 6). The series is classed as in vivo. The settings on record: dog, 5 mg/kg. The procedure:
(§4) Lithium 9-O-(azetidin-2'-on-4'-yl)clavulanate was administered orally to a group of eight dogs, weighing 9-12 kg, at a dosage of 5 mg/kg.
The level of the compound in the blood was measured after 0.25, 0.5, 1, 2, 4 and 6 hours. The results are shown in Table 1, with those for sodium clavulanate for comparison.

Series [21] can be described thus: Urinary recovery after oral administration to dogs (Demonstration 6). Format: in vivo. The settings on record: for dose excreted at 24 h: dog, urine, po, 5 mg/kg. The procedure: as §4
The urinary recovery of the compound over 24 hours was also measured.

Where [22] appears, read: Klebsiella, E70, alone, read-out: MIC.
Where [23] appears, read: Escherichia coli, JT39, read-out: MIC.
[24] abbreviates: Escherichia coli, JT410, alone, read-out: MIC.

≈ marks a conversion by molar mass, not a printed value. Where “and” joins values, the source holds several entries; their conditions need not be identical. Equal entries are not always repeated. Where two headings read alike, the source gives them in different places.

For `NCC(=O)NCCOCC=C1OC2CC(=O)N2C1C(=O)O` (centres unmarked) [9-O-[(N-Glycyl)-2-aminoethyl]clavulanic acid], the “MIC (ampicillin + title compound)” value came out at 1.25 µg/mL in [1] (Amp. + 1 μg/ml of title comp.); 0.15 µg/mL in series [1] (Amp. + 5 μg/ml of title comp.); 6.25 µg/mL in series [2] (Amp. + 1 μg/ml of title comp.); 1.5 µg/mL in series [2] (Amp. + 5 μg/ml of title comp.); 8 µg/mL in [3] (Amp. + 1 μg/ml of title comp.); 2 µg/mL in [3] (Amp. + 5 μg/ml of title comp.). For the same molecule, the “MIC (ampicillin + title compound)” value in series [4] (Amp. + 1 μg/ml of title comp.) was 31.2 µg/mL; in [4] (Amp. + 5 μg/ml of title comp.), 8 µg/mL; in series [5] (Amp. + 5 μg/ml of title comp.), 62.5 µg/mL. The MIC in series [1] worked out at 8 µg/mL (≈ 26.7 µM); in series [2] (alone), 62.5 µg/mL (≈ 209 µM); in series [3], 250 µg/mL (≈ 835 µM); in [4] it was 31.2 µg/mL (≈ 104 µM); in series [5] (alone) it was 62.5 µg/mL (≈ 209 µM).

For `CC1(C)S[C@@H]2[C@H](NC(=O)[C@H](N)c3ccc(O)cc3)C(=O)N2[C@H]1C(=O)O` [Amoxycillin, amoxycillin], the ED50 in series [6], in series [7] and in [8] was over 1000 mg/kg throughout.

For `CC1(C)S[C@@H]2[C@H](NC(=O)[C@H](N)c3ccccc3)C(=O)N2[C@H]1C(=O)O` [Ampicillin, ampicillin, reference compound], the MIC in series [9] was 62 µg/mL (≈ 177 µM); in [10] it was 2000 µg/mL (≈ 5720 µM); in [11] it was 2000 µg/mL; in [12] it was 1000 µg/mL; in series [13], over 2000 µg/mL; in series [2] (Klebsiella, E70), 1000 µg/mL (≈ 2860 µM). Also, the MIC in series [2] (Klebsiella, E70, alone) was 500 µg/mL (≈ 1430 µM); in series [3], 2000 µg/mL and > 2000 µg/mL; in [4] (Escherichia coli, JT39) it was 2000 µg/mL (≈ 5720 µM); in [4], 1000 µg/mL (≈ 2860 µM); in series [5] (Escherichia coli, JT410), 250 µg/mL (≈ 715 µM).

As to `Cc1nnc(SCC2=C(C(=O)O)N3C(=O)[C@@H](NC(=O)Cn4cnnn4)[C@H]3SC2)s1` [Cefazolin], the ED50 in series [8] was 13 mg/kg.

As to `O=C1CC(OC/C=C2\O[C@@H]3CC(=O)N3[C@H]2C(=O)O)N1` (some centres unmarked) [Example 2, Sodium 9-O-(azetidin-2'-on-4'-yl)clavulanate], the MIC was 8 µg/mL in [9] (alone, read-out: MIC); 31.2 µg/mL in series [14]; 31.2 µg/mL in [10] (alone, read-out: MIC). Moreover, the “signs of drug toxicity” value in series [15] is on record as “No signs of drug toxicity were observed”. Further, the “synergism with penicillins such as amoxycillin” value in series [16] is “effective synergist for penicillins such as amoxycillin”.

As for `CC(NC=O)OC/C=C1\O[C@@H]2CC(=O)N2[C@H]1C(=O)O` (some centres unmarked) [Example 9, Lithium 9-O-(1-formamidoethyl)clavulanate], the MIC in series [11] (alone, read-out: MIC) was 62.5 µg/mL; in series [17], 31.2 µg/mL; in series [18] it was 62.5 µg/mL; in series [12] (alone, read-out: MIC) it was 62.5 µg/mL; in series [19], 8 µg/mL; in series [13], over 500 µg/mL. Also, the “effect on the effectiveness of amoxycillin” value in series [8] (with amoxycillin, sub-cutaneous) is listed as “enhance the effectiveness of amoxycillin”.

Regarding `N[C@@H]1C(=O)N[C@H]1OC/C=C1\O[C@@H]2CC(=O)N2[C@H]1C(=O)O` [Example 13, 9-O-[(3S,4S)-2'-Oxo-3'-aminoazetidin-4'-yl]clavulanic acid], the MIC in [1] (read-out: MIC), in [2] (setting [22]), in series [3] (read-out: MIC), in [4] (setting [23]) and in [5] (setting [24]) was 62.5 µg/mL (≈ 221 µM) throughout.

For the molecule `N[C@@H]1C(=O)N[C@@H]1OC/C=C1\O[C@@H]2CC(=O)N2[C@H]1C(=O)O` [Example 14, 9-O-[(3S,4R)-2'-Oxo-3'-aminoazetidin-4'-yl]-clavulanic acid], the MIC in [1] (read-out: MIC) worked out at 62.5 µg/mL (≈ 221 µM); in series [2] (setting [22]), 62.5 µg/mL (≈ 221 µM); in series [3] (read-out: MIC), 62.5 µg/mL (≈ 221 µM); in series [4] (setting [23]) it was 31.2 µg/mL (≈ 110 µM); in [5] (setting [24]), 62.5 µg/mL (≈ 221 µM).

`O=C1CC(OC/C=C2\O[C@@H]3CC(=O)N3[C@H]2C(=O)O)N1` (some centres unmarked) [Example 27, Lithium 9-O-(2'-oxoazetidin-4'-yl)-clavulanate] showed a concentration at 0.25 h in series [20] of 1450 ng/mL. In [20], this molecule returned a concentration at 0.5 h of 3640 ng/mL. This molecule also returned a concentration at 1 h in series [20] of 4780 ng/mL. For the same molecule, the concentration at 2 h in series [20] is 3790 ng/mL. The molecule further displayed a concentration at 4 h in series [20] of 710 ng/mL. In series [20] (6 hours), this molecule returned a concentration at 6 h of under 200 ng/mL. Besides, the “Urinary Recovery” value in series [21] (0-6 hour, Dog No. 1, 5 mg/kg) is 10.8 mg; in [21] (0-6 hour, Dog No. 2, 5 mg/kg), 14.8 mg; in [21] (0-6 hour, Dog No. 3, 5 mg/kg), 13.1 mg; in [21] (0-6 hour, Dog No. 4, 5 mg/kg), 29.5 mg; in series [21] (0-6 hour, Dog No. 5, 5 mg/kg), 18.5 mg; in series [21] (0-6 hour, Dog No. 6, 5 mg/kg), 9.2 mg. Besides, the “Urinary Recovery” value was found to be 9.25 mg in series [21] (0-6 hour, Dog No. 7, 5 mg/kg); 12.15 mg in series [21] (0-6 hour, Dog No. 8, 5 mg/kg); 11.7 mg in [21] (0-24 hour, Dog No. 1, 5 mg/kg); 17.4 mg in series [21] (0-24 hour, Dog No. 2, 5 mg/kg); 18.8 mg in series [21] (0-24 hour, Dog No. 3, 5 mg/kg); 29.9 mg in series [21] (0-24 hour, Dog No. 4, 5 mg/kg). Moreover, the “Urinary Recovery” value in series [21] (0-24 hour, Dog No. 5, 5 mg/kg) is given as 19.6 mg; in [21] (0-24 hour, Dog No. 6, 5 mg/kg), 10.3 mg; in series [21] (0-24 hour, Dog No. 7, 5 mg/kg) it was 11.1 mg; in series [21] (0-24 hour, Dog No. 8, 5 mg/kg), 12.3 mg. For the same molecule, the dose excreted at 24 h in [21] (Dog No. 1, read-out: Urinary Recovery, % over 24 hour) was determined as 20.1%; in series [21] (Dog No. 2, read-out: Urinary Recovery, % over 24 hour), 38.6%; in [21] (Dog No. 3, read-out: Urinary Recovery, % over 24 hour) it was 32.1%; in [21] (Dog No. 4, read-out: Urinary Recovery, % over 24 hour) it was 52.4%; in [21] (Dog No. 5, read-out: Urinary Recovery, % over 24 hour), 37.3%; in series [21] (Dog No. 6, read-out: Urinary Recovery, % over 24 hour), 17.2%. Further, the dose excreted at 24 h was found to be 19.1% in series [21] (Dog No. 7, read-out: Urinary Recovery, % over 24 hour) and 19.5% in series [21] (Dog No. 8, read-out: Urinary Recovery, % over 24 hour).

In [20], `O=C(O)[C@H]1/C(=C/CO)O[C@@H]2CC(=O)N21` [sodium clavulanate, reference compound] had a concentration at 0.25 h of 960 ng/mL, a concentration at 0.5 h of 3110 ng/mL, a concentration at 1 h of 2910 ng/mL and a concentration at 2 h of 1680 ng/mL. In addition, the concentration at 4 h in [20] was found to be 280 ng/mL.
